Entries after “also recorded” stand apart in the source; their conditions may differ. Ends that are not written are not given here.
Key:
CD1-wildtype mice = test: Mouse toxicity studies (weight, blood count, serum chemistries); format: in vivo; conditions: for alkaline phosphatase level, individual mouse: female
Procedure: Mouse Toxicity Studies: Sixty CD1-wildtype mice (1:1 male to female ratio) were obtained from Charles River and divided into 6 groups of 10, 5 females and 5 males each. Ten control mice were injected with 1X PBS. Treated mice were injected intravenously with a single dose of CTP 150 μg/Kg. Groups of 10 treated mice (5 male, 5 female) were euthanized on day 0 (immediately after injection), 1, 2, 7, and 14 post-injection using inhalational CO2. After euthanasia, the chest cavity was opened, and blood drawn via cardiac puncture for complete blood count and serum chemistries. Following the blood draw, the right atrium was nicked and the whole animal perfusion fixed using 3 mL of formalin injected into the left ventricular apex. The control group was euthanized on day 2. A complete blood count, metabolic profile, and thyroid studies were performed.

[1] = target: T1, HEK-Nav1.5 (Late, Antagonist) (Homo sapiens, UniProt Q14524); format: cell-based; conditions: CTP 0.1 to 30 µM; HEK cells; late current, ramp with 50nM ATXII; antagonist; 0.1% Pluronic F-68
T1 construct: CYL7004QB2DR (late); host or cells: HEK

B6-wildtype mice = test: Blood pressure pre- and post-CTP injection; format: in vivo, mouse; conditions: CTP 10 mg/Kg i.v.; 6 h post-injection vs pre-injection; six mice, isoflurane
Procedure: Blood Pressure Pre- and Post-CTP Injection: Six B6-wildtype mice were obtained from the Jackson Laboratory. Blood pressure was taken using a non-invasive blood pressure system from Kent Scientific. Mice were anesthetized using 2.5% isoflurane exposure for 5 min, placed in a tube holder, and warmed using a warming blanket for approximately 15 min before their tails were fitted with blood pressure cuffs. A total of 21 blood pressure readings were taken, and average systolic and diastolic blood pressure calculated. After baseline blood pressure was established, mice were injected intravenously with 10 mg/Kg of CTP, and blood pressure was measured again 6 h post-injection.

[2] = female mice, CTP 150 μg/Kg single i.v., Day 0, recovered by Day 1
[3] = female mice, CTP 150 μg/Kg single i.v., vs control
[4] = male mice, CTP 150 μg/Kg single i.v., vs control

T1 sequence (Q14524 whole entry): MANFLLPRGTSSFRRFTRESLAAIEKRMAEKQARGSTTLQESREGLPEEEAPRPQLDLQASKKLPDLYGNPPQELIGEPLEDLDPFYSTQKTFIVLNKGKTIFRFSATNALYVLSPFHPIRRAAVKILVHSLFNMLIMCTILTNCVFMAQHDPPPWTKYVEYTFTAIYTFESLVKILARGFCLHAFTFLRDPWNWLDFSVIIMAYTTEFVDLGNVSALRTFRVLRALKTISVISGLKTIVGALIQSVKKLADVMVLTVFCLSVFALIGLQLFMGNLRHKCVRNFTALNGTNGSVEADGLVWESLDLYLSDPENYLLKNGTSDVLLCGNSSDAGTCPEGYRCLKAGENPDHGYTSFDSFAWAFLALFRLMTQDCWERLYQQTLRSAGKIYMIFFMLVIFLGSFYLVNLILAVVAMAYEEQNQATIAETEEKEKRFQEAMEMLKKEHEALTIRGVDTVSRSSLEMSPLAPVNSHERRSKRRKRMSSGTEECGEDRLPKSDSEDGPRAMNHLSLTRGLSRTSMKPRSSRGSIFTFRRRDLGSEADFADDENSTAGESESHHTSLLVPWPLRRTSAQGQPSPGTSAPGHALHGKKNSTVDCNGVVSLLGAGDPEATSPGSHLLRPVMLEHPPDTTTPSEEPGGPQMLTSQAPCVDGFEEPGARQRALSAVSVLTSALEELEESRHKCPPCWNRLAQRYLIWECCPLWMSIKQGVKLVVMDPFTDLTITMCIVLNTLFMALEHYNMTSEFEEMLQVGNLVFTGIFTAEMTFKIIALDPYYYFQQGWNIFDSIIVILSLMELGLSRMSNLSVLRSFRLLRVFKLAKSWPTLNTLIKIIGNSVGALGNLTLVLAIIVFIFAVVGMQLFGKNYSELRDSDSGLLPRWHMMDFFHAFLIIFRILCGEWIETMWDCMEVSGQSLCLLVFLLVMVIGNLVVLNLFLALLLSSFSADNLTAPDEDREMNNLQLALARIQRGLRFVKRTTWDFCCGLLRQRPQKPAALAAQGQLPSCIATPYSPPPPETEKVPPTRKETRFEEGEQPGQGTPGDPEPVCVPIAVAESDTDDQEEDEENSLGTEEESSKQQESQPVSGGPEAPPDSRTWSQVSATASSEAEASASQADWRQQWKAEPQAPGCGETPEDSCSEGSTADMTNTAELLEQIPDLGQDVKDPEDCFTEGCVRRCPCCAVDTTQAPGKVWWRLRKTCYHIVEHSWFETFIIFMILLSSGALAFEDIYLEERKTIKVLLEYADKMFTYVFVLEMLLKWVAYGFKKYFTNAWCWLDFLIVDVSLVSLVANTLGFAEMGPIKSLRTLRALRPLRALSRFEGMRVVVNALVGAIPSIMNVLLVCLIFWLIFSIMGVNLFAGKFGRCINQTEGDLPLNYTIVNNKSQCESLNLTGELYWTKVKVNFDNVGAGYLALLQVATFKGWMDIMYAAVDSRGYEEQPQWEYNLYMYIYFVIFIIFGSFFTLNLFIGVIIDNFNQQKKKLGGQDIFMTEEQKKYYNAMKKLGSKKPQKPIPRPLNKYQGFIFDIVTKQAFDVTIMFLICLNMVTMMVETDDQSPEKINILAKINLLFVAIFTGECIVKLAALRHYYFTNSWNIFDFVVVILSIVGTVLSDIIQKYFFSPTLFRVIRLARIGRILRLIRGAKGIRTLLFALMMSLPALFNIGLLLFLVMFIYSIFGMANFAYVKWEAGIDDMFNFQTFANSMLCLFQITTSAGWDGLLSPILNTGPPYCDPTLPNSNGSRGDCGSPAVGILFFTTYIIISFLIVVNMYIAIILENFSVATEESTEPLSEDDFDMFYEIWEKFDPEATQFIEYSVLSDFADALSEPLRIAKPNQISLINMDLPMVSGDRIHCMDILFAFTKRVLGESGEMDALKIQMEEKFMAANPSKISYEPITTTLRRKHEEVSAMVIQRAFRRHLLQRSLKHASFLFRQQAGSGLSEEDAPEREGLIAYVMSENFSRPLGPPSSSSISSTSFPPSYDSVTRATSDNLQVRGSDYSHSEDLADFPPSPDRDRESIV

Sequence: APWHLSSQYSRT [CTP]
- toxicity signals overall (CD1-wildtype mice; CTP 150 µg/Kg single dose, except borderline alkaline phosphatase increase in female mice): no significant toxicity signals
- body weight (CD1-wildtype mice; control vs injected mice of each sex, CTP 150 μg/Kg single i.v., two-week course): no significant difference
- mean alkaline phosphatase level (CD1-wildtype mice; female mice, any of the groups, upper limit of normal not crossed, CTP 150 μg/Kg single i.v.): ≤ 140 IU/L
- alkaline phosphatase recovery (CD1-wildtype mice; female mice, CTP 150 μg/Kg single i.v.): returning to baseline by Day 2
- platelet count (CD1-wildtype mice; [2]): decreased on Day 0; also recorded: significant decrease
- white blood cell count (CD1-wildtype mice; [2]): decreased on Day 0; also recorded: significant decrease
- bilirubin (CD1-wildtype mice; female mice, CTP 150 μg/Kg single i.v., only on Day 0, recovered by Day 1): significant decrease
- alanine aminotransferase (CD1-wildtype mice; [3]): no significant difference
- alkaline phosphatase change (CD1-wildtype mice; [3]): borderline increase in alkaline phosphatase levels in female mice on Days 0 and 1, with recovery to control levels by Day 2; also recorded: rise in alkaline phosphatase
- aspartate aminotransferase (CD1-wildtype mice; [3]): no significant difference
- blood urea nitrogen (CD1-wildtype mice; [3]): no significant difference
- creatinine (CD1-wildtype mice; [3]): no significant difference
- hemoglobin (CD1-wildtype mice; [3]): no significant difference
- alkaline phosphatase level, individual mouse (CD1-wildtype mice; day 0, first of two borderline elevated mice, CTP 150 μg/Kg single i.v.): 151 IU/L
- alkaline phosphatase level, individual mouse (CD1-wildtype mice; day 0, second of two borderline elevated mice, CTP 150 μg/Kg single i.v.): 166 IU/L
- calcium levels (CD1-wildtype mice; male mice, CTP 150 μg/Kg single i.v., normalizing at later time-points): increased marginally only on Day 0
- alanine aminotransferase (CD1-wildtype mice; [4]): no difference
- alkaline phosphatase (CD1-wildtype mice; [4]): no difference
- aspartate aminotransferase (CD1-wildtype mice; [4]): no difference
- blood urea nitrogen (CD1-wildtype mice; [4]): decrease; also recorded: significantly lower on Days 0–2
- creatinine (CD1-wildtype mice; [4]): decrease; also recorded: significantly lower on Days 0–2
- hemoglobin (CD1-wildtype mice; [4]): no difference
- phosphorous levels (CD1-wildtype mice; [4]): no difference
- platelet count (CD1-wildtype mice; [4]): no difference
- total bilirubin (CD1-wildtype mice; [4]): no difference
- white blood cell count (CD1-wildtype mice; [4]): no difference
- Estimated IC50 [1]: N/C (Not calculable, inhibition >25% was not observed.)
- diastolic blood pressure (B6-wildtype mice): No significant difference; also recorded: no significant (ns) change
- systolic blood pressure (B6-wildtype mice): No significant difference; also recorded: no significant (ns) change

Source: publication PMC10818749, “Toxicity Studies of Cardiac-Targeting Peptide Reveal a Robust Safety Profile” (Pharmaceutics, 2024)
